{"source": "patent US20250304623A1", "about": "“PEPTIDES FOR INTRACELLULAR DELIVERY” (UNIVERSIDADE DE SANTIAGO DE COMPOSTELA, priority 2022, published 2025)", "type_in_all_cases": "cell-based", "key": {"[1]": {"test_system": "HepG2 cells expressing EGFP", "test": "Cas9-RNP delivery against EGFP (gene editing, plate reader), HepG2", "experimental": "(§1) To generate an EGFP expressing HeLa cell line, HeLa cells were transfected with EGFP pDNA (pEGFP-C1, Clontech) and stable transfectants were selected with 400 μg/mL of G-418 (Millipore). Green clones were selected by epifluorescence microscopy and tested for EGFP expression stability through several passages. […] All other EGFP-expressing cell lines were obtained in a similar way from parent non-EGFP-expressing cell lines.\n(§2) Cells expressing EGFP were seeded in a 96 well plate the day before the experiment at a concentration of 50,000 cell/mL (100 μL/w) in DMEM+10% FBS+1% Gln-Abt. For robotic library screening, the delivery of Cas9-RNP against EGFP (RNP designed to knock-out the gene encoding for the enhanced green fluorescent protein (EGFP)) was performed. For RNP assembly, 9.2 μL of crRNA and 9.2 μL of tracrRNA were mixed in 211.6 μL of Nuclease-Free Duplex Buffer (IDT), incubated for 5 min at 95° C. and slowly cooled at rt (see I. Lostalé-Seijo, et al. Peptide/Cas9 nanostructures for ribonucleoprotein cell membrane transport and gene edition, Chem. Sci., 2017). Cas9 protein was dissolved in DMEM at a final concentration of 4 μM and equal volumes of the RNA complex and Cas9 were mixed and incubated for 5 min at rt. 75 μL of the corresponding amphiphile concentrations were added to 5 μL of RNP at 2 μM. The mixture was shaken for 30 min at room temperature before the addition to the cells. The cell medium was aspirated, and cells were washed twice with PBS. Cells were covered with 30 μL of DMEM and 20 μL of the RNP/amphiphile complexes were added to the cells (final peptide concentrations=2.5, 5 and 10 μM; final Cas9-RNP concentration=50 nM) and incubated for 4 h. After the incubation, the medium was replaced by 100 μL of fresh DMEM supplemented with 10% FBS. The total EGFP fluorescence was quantified after 72 h in a plate reader (FIG. 2, Table 1 (right) and Table 6). All experiments were done in triplicate. […]\n(§3) Tables 26-31 show the mean (triplicates) percentage of gene editing, accounted by GFP fluorescence intensity decrease (% of reduction), measured after the transfection of Cas9-RNP by different amphiphiles at different concentrations in a variety of cell lines. Background values, accounted by untreated control cells, were subtracted for processing."}, "[2]": {"test_system": "A549 cells expressing EGFP", "test": "Cas9-RNP delivery against EGFP (gene editing, plate reader), A549", "details": "for percentage of gene editing, GFP fluorescence intensity decrease (% of reduction): A549 cells", "experimental": "as §1\nCells expressing EGFP were seeded in a 96 well plate the day before the experiment at a concentration of 50,000 cell/mL (100 μL/w) in DMEM+10% FBS+1% Gln-Abt. For robotic library screening, the delivery of Cas9-RNP against EGFP (RNP designed to knock-out the gene encoding for the enhanced green fluorescent protein (EGFP)) was performed. For RNP assembly, 9.2 μL of crRNA and 9.2 μL of tracrRNA were mixed in 211.6 μL of Nuclease-Free Duplex Buffer (IDT), incubated for 5 min at 95° C. and slowly cooled at rt (see I. Lostalé-Seijo, et al. Peptide/Cas9 nanostructures for ribonucleoprotein cell membrane transport and gene edition, Chem. Sci., 2017). Cas9 protein was dissolved in DMEM at a final concentration of 4 μM and equal volumes of the RNA complex and Cas9 were mixed and incubated for 5 min at rt. 75 μL of the corresponding amphiphile concentrations were added to 5 μL of RNP at 2 μM. The mixture was shaken for 30 min at room temperature before the addition to the cells. The cell medium was aspirated, and cells were washed twice with PBS. Cells were covered with 30 μL of DMEM and 20 μL of the RNP/amphiphile complexes were added to the cells (final peptide concentrations=2.5, 5 and 10 μM; final Cas9-RNP concentration=50 nM) and incubated for 4 h. After the incubation, the medium was replaced by 100 μL of fresh DMEM supplemented with 10% FBS. The total EGFP fluorescence was quantified after 72 h in a plate reader (FIG. 2, Table 1 (right) and Table 6). All experiments were done in triplicate.\nTables 1-7: RLuc (pDNA) or EGFP (mRNA) expression levels were normalized to Lipofectamine reagents (value=1) and expressed as fold-times signal increase. In the case of siRNA, the siRNA treated cells fluorescence was compared with siMOCK control fluorescence, while Cas9-RNP mediated knockout was measured against the fluorescence of untreated cells. In both siRNA and Cas9-RNP, values are expressed as % fluorescence reduction. Amphiphile concentration was 5 μM in all cases. All experiments were performed in triplicate.\nas §3"}, "[3]": {"test_system": "ARPE19 cells expressing EGFP", "test": "Cas9-RNP delivery against EGFP (gene editing, plate reader), ARPE19", "experimental": "as §1, §2, §3"}}, "note": "Starred links: 1 amine or outer side, 2 acyl side, 3 side chain; linkers in the order of their positions; H or OH if unused. Residues, ends and D or L forms follow the SMILES beside them. Groups on a side chain read outwards from the residue. *: point of attachment. Glutaryl = O=C(CCCC(=O)[*:2])[*:1]; NHNH2 = NN*", "data": [{"molecule": "CC(=O)N[C@@H](CCCNC(=N)N)C(=O)N[C@@H](CCCCNC(=O)CCCC(=O)NN)C(=O)N[C@@H](Cc1c[nH]cn1)C(=O)N[C@@H](CCCNC(=N)N)C(=O)N[C@@H](CCCCNC(=O)CCCC(=O)NN)C(=O)N[C@@H](CCCCNC(=O)CCCC(=O)NN)C(=O)N[C@@H](Cc1c[nH]cn1)C(N)=O", "note": "[7.3(L-H), Ac-RK*HRK*K*H-NH2] (Ac-RK([Glutaryl-NHNH2])HRK([Glutaryl-NHNH2])K([Glutaryl-NHNH2])H-NH2)", "values": [{"measurement": "percentage of gene editing, GFP fluorescence intensity decrease (% of reduction)", "setting": "[1]; Dodecanal, 10 μM", "value": "−28", "unit": "%"}, {"measurement": "percentage of gene editing, GFP fluorescence intensity decrease (% of reduction)", "setting": "[1]; Dodecanal, 15 μM", "value": "−28", "unit": "%"}, {"measurement": "percentage of gene editing, GFP fluorescence intensity decrease (% of reduction)", "setting": "[1]; Myristoleyl, 5 μM", "value": "−16", "unit": "%"}, {"measurement": "percentage of gene editing, GFP fluorescence intensity decrease (% of reduction)", "setting": "[1]; Myristoleyl, 10 μM", "value": "−25", "unit": "%"}, {"measurement": "percentage of gene editing, GFP fluorescence intensity decrease (% of reduction)", "setting": "[1]; Myristoleyl, 15 μM", "value": "−19", "unit": "%"}, {"measurement": "percentage of gene editing, GFP fluorescence intensity decrease (% of reduction)", "setting": "[1]; Oleyl, 5 μM", "value": "−17", "unit": "%"}, {"measurement": "percentage of gene editing, GFP fluorescence intensity decrease (% of reduction)", "setting": "[1]; Oleyl, 10 μM", "value": "−13", "unit": "%"}, {"measurement": "percentage of gene editing, GFP fluorescence intensity decrease (% of reduction)", "setting": "[1]; Oleyl, 15 μM", "value": "−12", "unit": "%"}, {"measurement": "percentage of gene editing, GFP fluorescence intensity decrease (% of reduction)", "setting": "[1]; Palmitoleyl, 5 μM", "value": "−23", "unit": "%"}, {"measurement": "percentage of gene editing, GFP fluorescence intensity decrease (% of reduction)", "setting": "[1]; Palmitoleyl, 10 μM", "value": "−12", "unit": "%"}, {"measurement": "percentage of gene editing, GFP fluorescence intensity decrease (% of reduction)", "setting": "[1]; Palmitoleyl, 15 μM", "value": "−25", "unit": "%"}, {"measurement": "percentage of gene editing, GFP fluorescence intensity decrease (% of reduction)", "setting": "[1]; Petroselinyl, 10 μM", "value": "−20", "unit": "%"}, {"measurement": "Cas9-RNP % fluorescence reduction", "setting": "[2]; A549, 5 μM, Myr tail", "value": 60, "unit": "%"}, {"measurement": "Cas9-RNP % fluorescence reduction", "setting": "[2]; A549, 5 μM, Pal tail", "value": 67, "unit": "%"}, {"measurement": "Cas9-RNP % fluorescence reduction", "setting": "[2]; A549, 5 μM, Pet tail", "value": 58, "unit": "%"}, {"measurement": "efficiency on GFP silencing (Cas9-RNP delivery)", "setting": "[2]; A549, myristoleyl, palmitoleyl or petroselinyl aldehydes", "value": "60-70%"}, {"measurement": "percentage of gene editing, GFP fluorescence intensity decrease (% of reduction)", "setting": "[2]; Dodecanal, 15 μM", "value": "−9", "unit": "%"}, {"measurement": "percentage of gene editing, GFP fluorescence intensity decrease (% of reduction)", "setting": "[2]; Myristoleyl, 5 μM", "value": 60, "unit": "%"}, {"measurement": "percentage of gene editing, GFP fluorescence intensity decrease (% of reduction)", "setting": "[2]; Myristoleyl, 10 μM", "value": 29, "unit": "%"}, {"measurement": "percentage of gene editing, GFP fluorescence intensity decrease (% of reduction)", "setting": "[2]; Myristoleyl, 15 μM", "value": 11, "unit": "%"}, {"measurement": "percentage of gene editing, GFP fluorescence intensity decrease (% of reduction)", "setting": "[2]; Oleyl, 5 μM", "value": 22, "unit": "%"}, {"measurement": "percentage of gene editing, GFP fluorescence intensity decrease (% of reduction)", "setting": "[2]; Oleyl, 10 μM", "value": 31, "unit": "%"}, {"measurement": "percentage of gene editing, GFP fluorescence intensity decrease (% of reduction)", "setting": "[2]; Oleyl, 15 μM", "value": 9, "unit": "%"}, {"measurement": "percentage of gene editing, GFP fluorescence intensity decrease (% of reduction)", "setting": "[2]; Palmitoleyl, 5 μM", "value": 67, "unit": "%"}, {"measurement": "percentage of gene editing, GFP fluorescence intensity decrease (% of reduction)", "setting": "[2]; Palmitoleyl, 10 μM", "value": 35, "unit": "%"}, {"measurement": "percentage of gene editing, GFP fluorescence intensity decrease (% of reduction)", "setting": "[2]; Palmitoleyl, 15 μM", "value": "−6", "unit": "%"}, {"measurement": "percentage of gene editing, GFP fluorescence intensity decrease (% of reduction)", "setting": "[2]; Petroselinyl, 5 μM", "value": 59, "unit": "%"}, {"measurement": "percentage of gene editing, GFP fluorescence intensity decrease (% of reduction)", "setting": "[2]; Petroselinyl, 10 μM", "value": 29, "unit": "%"}, {"measurement": "percentage of gene editing, GFP fluorescence intensity decrease (% of reduction)", "setting": "[2]; Petroselinyl, 15 μM", "value": 26, "unit": "%"}, {"measurement": "percentage of gene editing, GFP fluorescence intensity decrease (% of reduction)", "setting": "[3]; Myristoleyl, 5 μM", "value": 19, "unit": "%"}, {"measurement": "percentage of gene editing, GFP fluorescence intensity decrease (% of reduction)", "setting": "[3]; Myristoleyl, 15 μM", "value": 12, "unit": "%"}, {"measurement": "percentage of gene editing, GFP fluorescence intensity decrease (% of reduction)", "setting": "[3]; Oleyl, 5 μM", "value": 1, "unit": "%"}, {"measurement": "percentage of gene editing, GFP fluorescence intensity decrease (% of reduction)", "setting": "[3]; Oleyl, 10 μM", "value": 6, "unit": "%"}, {"measurement": "percentage of gene editing, GFP fluorescence intensity decrease (% of reduction)", "setting": "[3]; Oleyl, 15 μM", "value": 15, "unit": "%"}, {"measurement": "percentage of gene editing, GFP fluorescence intensity decrease (% of reduction)", "setting": "[3]; Palmitoleyl, 5 μM", "value": 37, "unit": "%"}, {"measurement": "percentage of gene editing, GFP fluorescence intensity decrease (% of reduction)", "setting": "[3]; Palmitoleyl, 10 μM", "value": 31, "unit": "%"}, {"measurement": "percentage of gene editing, GFP fluorescence intensity decrease (% of reduction)", "setting": "[3]; Petroselinyl, 5 μM", "value": 18, "unit": "%"}]}]}
